Experimental data: patent US20260116920A1, “HUMAN TRANSFERRIN RECEPTOR BINDING PEPTIDE” (PEPTIDREAM INC., priority 2021, published 2026)
Positions of bridges follow the written chain, without caps; N, C: chain ends. Non-standard residues stand in square brackets, D forms with d. Residues, ends and D or L forms follow the SMILES beside them. *: point of attachment. Phe(3-COOH) = N[C@@H](Cc1cccc(C(=O)O)c1)C(=O)O; NH(CH2CH2O)8Me = COCCOCCOCCOCCOCCOCCOCCOCCN*; NMePhe(3-Cl) = CN[C@@H](Cc1cccc(Cl)c1)C(=O)O; 3Pal(6-NH2) = Nc1ccc(C[C@H](N)C(=O)O)cn1; NMeY = CN[C@@H](Cc1ccc(O)cc1)C(=O)O; 3Pal = N[C@@H](Cc1cccnc1)C(=O)O; 4Pal = N[C@@H](Cc1ccncc1)C(=O)O; PEG4 = NCCOCCOCCOCCOCCC(=O)O; Carboxymethyl = O=C(O)C*

Target: T1, human transferrin receptor (hTfR) (Homo sapiens, UniProt P02786)
T1 construct: made in house
Test: Evaluation of molecular interaction between transferrin receptor (hTfR) and peptide using surface plasmon resonance (SPR)
Format: binding
Conditions: surface plasmon resonance, binding to hTfR; KD class symbol; read-out: SPR (KD value)
Summary of the method: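 Recombinant human TfR dimer (0.5 μM) was captured on a Ni-charged NTA chip and amine-coupled with EDC/NHS, then ethanolamine-capped. Peptides at 5–100 nM in HEPES pH 8.0 buffer with 150 mM NaCl, 0.05% Tween 20, 0.1% BSA and 1.0% DMSO were run by single-cycle kinetics; KD came from least-squares curve fitting.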

T1 sequence (P02786 89-760 limits assumed): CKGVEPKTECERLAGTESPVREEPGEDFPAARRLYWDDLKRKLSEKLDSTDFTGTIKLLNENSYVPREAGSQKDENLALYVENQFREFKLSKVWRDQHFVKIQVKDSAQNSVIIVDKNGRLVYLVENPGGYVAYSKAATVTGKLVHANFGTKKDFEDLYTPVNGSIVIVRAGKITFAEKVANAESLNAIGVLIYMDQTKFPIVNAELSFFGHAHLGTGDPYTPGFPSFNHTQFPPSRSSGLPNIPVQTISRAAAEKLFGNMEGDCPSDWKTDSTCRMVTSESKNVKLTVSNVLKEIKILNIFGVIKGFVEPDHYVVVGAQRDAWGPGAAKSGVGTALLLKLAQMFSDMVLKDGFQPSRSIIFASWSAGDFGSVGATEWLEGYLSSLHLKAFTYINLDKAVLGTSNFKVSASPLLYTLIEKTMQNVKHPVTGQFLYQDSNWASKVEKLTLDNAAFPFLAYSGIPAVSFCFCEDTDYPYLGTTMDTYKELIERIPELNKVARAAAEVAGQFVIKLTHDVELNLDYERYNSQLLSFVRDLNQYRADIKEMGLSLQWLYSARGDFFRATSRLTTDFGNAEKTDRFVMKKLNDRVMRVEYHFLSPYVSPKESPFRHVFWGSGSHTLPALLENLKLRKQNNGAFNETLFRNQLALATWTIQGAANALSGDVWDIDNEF

SMILES	Kd
CC[C@H](C)[C@@H]1NC(=O)[C@H](Cc2ccc(OCC(=O)O)cc2)NC(=O)[C@H](Cc2ccc(N)nc2)NC(=O)[C@H](CC(N)=O)NC(=O)[C@H](Cc2c[nH]c3ccccc23)NC(=O)[C@H](C(C)C)NC(=O)[C@H](Cc2cccc(Cl)c2)N(C)C(=O)[C@H](C(C)C)NC(=O)[C@H](C)NC(=O)CSC[C@@H](C(=O)NCCOCCOCCOCCOCCC(N)=O)NC(=O)[C@H](Cc2ccc(O)cc2)N(C)C(=O)[C@H](Cc2cccc(C(=O)O)c2)NC(=O)[C@H](CCCNC(=N)N)NC(=O)[C@H](CCCNC(=N)N)NC(=O)[C@H]([C@@H](C)CC)NC1=O [compound 91] ({CH2CO}-AV[NMePhe(3-Cl)]VWN[3Pal(6-NH2)]Y(Carboxymethyl)IIRR[Phe(3-COOH)][NMeY]C[PEG4]-NH2; thioether N-15)	1 to 100 nM
CC[C@H](C)[C@@H]1NC(=O)[C@H](Cc2ccc(OCC(=O)O)cc2)NC(=O)[C@H](Cc2ccc(N)nc2)NC(=O)[C@H](CC(N)=O)NC(=O)[C@H](Cc2c[nH]c3ccccc23)NC(=O)[C@H](C(C)C)NC(=O)[C@H](Cc2cccc(Cl)c2)N(C)C(=O)[C@H](C(C)C)NC(=O)[C@H](C)NC(=O)CSC[C@@H](C(=O)NCCOCCOCCOCCOCCC(N)=O)NC(=O)[C@H](Cc2ccc(O)cc2)N(C)C(=O)[C@H](Cc2ccncc2)NC(=O)[C@H](CCCNC(=N)N)NC(=O)[C@H](CCCNC(=N)N)NC(=O)[C@H]([C@@H](C)CC)NC1=O [compound 92]	1 to 100 nM
CC[C@H](C)[C@@H]1NC(=O)[C@H](Cc2cccnc2)NC(=O)[C@H](Cc2ccc(O)cc2)NC(=O)[C@H](CC(N)=O)NC(=O)[C@H](Cc2c[nH]c3ccccc23)NC(=O)[C@H](C(C)C)NC(=O)[C@H](Cc2cccc(Cl)c2)N(C)C(=O)[C@H](C(C)C)NC(=O)[C@H](C)NC(=O)CSC[C@@H](C(=O)NCCOCCOCCOCCOCCC(N)=O)NC(=O)[C@H](Cc2ccc(O)cc2)N(C)C(=O)[C@H](Cc2cccc(C(=O)O)c2)NC(=O)[C@H](CCC(=O)NCCOCCOCCOCCOCCOCCOCCOCCOC)NC(=O)[C@H](CCCNC(=N)N)NC(=O)[C@H]([C@@H](C)CC)NC1=O [compound 93] ({CH2CO}-AV[NMePhe(3-Cl)]VWNY[3Pal]IIRE(NH(CH2CH2O)8Me)[Phe(3-COOH)][NMeY]C[PEG4]-NH2; thioether N-15)	1 to 100 nM
CC[C@H](C)[C@@H]1NC(=O)[C@H](Cc2cccnc2)NC(=O)[C@H](Cc2ccc(O)cc2)NC(=O)[C@H](CC(N)=O)NC(=O)[C@H](Cc2c[nH]c3ccccc23)NC(=O)[C@H](C(C)C)NC(=O)[C@H](Cc2cccc(Cl)c2)N(C)C(=O)[C@H](C(C)C)NC(=O)[C@H](C)NC(=O)CSC[C@@H](C(=O)NCCOCCOCCOCCOCCC(N)=O)NC(=O)[C@H](Cc2ccc(O)cc2)N(C)C(=O)[C@H](Cc2ccncc2)NC(=O)[C@H](CCC(=O)NCCOCCOCCOCCOCCOCCOCCOCCOC)NC(=O)[C@H](CCCNC(=N)N)NC(=O)[C@H]([C@@H](C)CC)NC1=O [compound 94] ({CH2CO}-AV[NMePhe(3-Cl)]VWNY[3Pal]IIRE(NH(CH2CH2O)8Me)[4Pal][NMeY]C[PEG4]-NH2; thioether N-15)	1 to 100 nM
CC[C@H](C)[C@@H]1NC(=O)[C@H](Cc2ccc(OCC(=O)O)cc2)NC(=O)[C@H](Cc2ccc(O)cc2)NC(=O)[C@H](CC(N)=O)NC(=O)[C@H](Cc2c[nH]c3ccccc23)NC(=O)[C@H](C(C)C)NC(=O)[C@H](Cc2cccc(Cl)c2)N(C)C(=O)[C@H](C(C)C)NC(=O)[C@H](C)NC(=O)CSC[C@@H](C(=O)NCCOCCOCCOCCOCCC(N)=O)NC(=O)[C@H](Cc2ccc(O)cc2)N(C)C(=O)[C@H](Cc2cccc(C(=O)O)c2)NC(=O)[C@H](CCC(=O)NCCOCCOCCOCCOCCOCCOCCOCCOC)NC(=O)[C@H](CCCNC(=N)N)NC(=O)[C@H]([C@@H](C)CC)NC1=O [compound 95] ({CH2CO}-AV[NMePhe(3-Cl)]VWNYY(Carboxymethyl)IIRE(NH(CH2CH2O)8Me)[Phe(3-COOH)][NMeY]C[PEG4]-NH2; thioether N-15)	1 to 100 nM

The remaining lines, values ahead:

Kd	SMILES
1 to 100 nM	CC[C@H](C)[C@@H]1NC(=O)[C@H](Cc2ccc(OCC(=O)O)cc2)NC(=O)[C@H](Cc2ccc(O)cc2)NC(=O)[C@H](CC(N)=O)NC(=O)[C@H](Cc2c[nH]c3ccccc23)NC(=O)[C@H](C(C)C)NC(=O)[C@H](Cc2cccc(Cl)c2)N(C)C(=O)[C@H](C(C)C)NC(=O)[C@H](C)NC(=O)CSC[C@@H](C(=O)NCCOCCOCCOCCOCCC(N)=O)NC(=O)[C@H](Cc2ccc(O)cc2)N(C)C(=O)[C@H](Cc2ccncc2)NC(=O)[C@H](CCC(=O)NCCOCCOCCOCCOCCOCCOCCOCCOC)NC(=O)[C@H](CCCNC(=N)N)NC(=O)[C@H]([C@@H](C)CC)NC1=O [compound 96] ({CH2CO}-AV[NMePhe(3-Cl)]VWNYY(Carboxymethyl)IIRE(NH(CH2CH2O)8Me)[4Pal][NMeY]C[PEG4]-NH2; thioether N-15)
1 to 100 nM	CC[C@H](C)[C@@H]1NC(=O)[C@H](Cc2cccnc2)NC(=O)[C@H](Cc2ccc(N)nc2)NC(=O)[C@H](CC(N)=O)NC(=O)[C@H](Cc2c[nH]c3ccccc23)NC(=O)[C@H](C(C)C)NC(=O)[C@H](Cc2cccc(Cl)c2)N(C)C(=O)[C@H](C(C)C)NC(=O)[C@H](C)NC(=O)CSC[C@@H](C(=O)NCCOCCOCCOCCOCCC(N)=O)NC(=O)[C@H](Cc2ccc(O)cc2)N(C)C(=O)[C@H](Cc2cccc(C(=O)O)c2)NC(=O)[C@H](CCC(=O)NCCOCCOCCOCCOCCOCCOCCOCCOC)NC(=O)[C@H](CCCNC(=N)N)NC(=O)[C@H]([C@@H](C)CC)NC1=O [compound 97] ({CH2CO}-AV[NMePhe(3-Cl)]VWN[3Pal(6-NH2)][3Pal]IIRE(NH(CH2CH2O)8Me)[Phe(3-COOH)][NMeY]C[PEG4]-NH2; thioether N-15)
1 to 100 nM	CC[C@H](C)[C@@H]1NC(=O)[C@H](Cc2cccnc2)NC(=O)[C@H](Cc2ccc(N)nc2)NC(=O)[C@H](CC(N)=O)NC(=O)[C@H](Cc2c[nH]c3ccccc23)NC(=O)[C@H](C(C)C)NC(=O)[C@H](Cc2cccc(Cl)c2)N(C)C(=O)[C@H](C(C)C)NC(=O)[C@H](C)NC(=O)CSC[C@@H](C(=O)NCCOCCOCCOCCOCCC(N)=O)NC(=O)[C@H](Cc2ccc(O)cc2)N(C)C(=O)[C@H](Cc2ccncc2)NC(=O)[C@H](CCC(=O)NCCOCCOCCOCCOCCOCCOCCOCCOC)NC(=O)[C@H](CCCNC(=N)N)NC(=O)[C@H]([C@@H](C)CC)NC1=O [compound 98] ({CH2CO}-AV[NMePhe(3-Cl)]VWN[3Pal(6-NH2)][3Pal]IIRE(NH(CH2CH2O)8Me)[4Pal][NMeY]C[PEG4]-NH2; thioether N-15)
1 to 100 nM	CC[C@H](C)[C@@H]1NC(=O)[C@H](Cc2ccc(OCC(=O)O)cc2)NC(=O)[C@H](Cc2ccc(N)nc2)NC(=O)[C@H](CC(N)=O)NC(=O)[C@H](Cc2c[nH]c3ccccc23)NC(=O)[C@H](C(C)C)NC(=O)[C@H](Cc2cccc(Cl)c2)N(C)C(=O)[C@H](C(C)C)NC(=O)[C@H](C)NC(=O)CSC[C@@H](C(=O)NCCOCCOCCOCCOCCC(N)=O)NC(=O)[C@H](Cc2ccc(O)cc2)N(C)C(=O)[C@H](Cc2cccc(C(=O)O)c2)NC(=O)[C@H](CCC(=O)NCCOCCOCCOCCOCCOCCOCCOCCOC)NC(=O)[C@H](CCCNC(=N)N)NC(=O)[C@H]([C@@H](C)CC)NC1=O [compound 99] ({CH2CO}-AV[NMePhe(3-Cl)]VWN[3Pal(6-NH2)]Y(Carboxymethyl)IIRE(NH(CH2CH2O)8Me)[Phe(3-COOH)][NMeY]C[PEG4]-NH2; thioether N-15)
1 to 100 nM	CC[C@H](C)[C@@H]1NC(=O)[C@H](Cc2ccc(OCC(=O)O)cc2)NC(=O)[C@H](Cc2ccc(N)nc2)NC(=O)[C@H](CC(N)=O)NC(=O)[C@H](Cc2c[nH]c3ccccc23)NC(=O)[C@H](C(C)C)NC(=O)[C@H](Cc2cccc(Cl)c2)N(C)C(=O)[C@H](C(C)C)NC(=O)[C@H](C)NC(=O)CSC[C@@H](C(=O)NCCOCCOCCOCCOCCC(N)=O)NC(=O)[C@H](Cc2ccc(O)cc2)N(C)C(=O)[C@H](Cc2ccncc2)NC(=O)[C@H](CCC(=O)NCCOCCOCCOCCOCCOCCOCCOCCOC)NC(=O)[C@H](CCCNC(=N)N)NC(=O)[C@H]([C@@H](C)CC)NC1=O [compound 100] ({CH2CO}-AV[NMePhe(3-Cl)]VWN[3Pal(6-NH2)]Y(Carboxymethyl)IIRE(NH(CH2CH2O)8Me)[4Pal][NMeY]C[PEG4]-NH2; thioether N-15)
1 to 100 nM	CC[C@H](C)[C@@H]1NC(=O)[C@H](Cc2ccc(OCC(=O)O)cc2)NC(=O)[C@H](Cc2ccc(O)cc2)NC(=O)[C@H](CC(N)=O)NC(=O)[C@H](Cc2cn(CC(=O)O)c3ccccc23)NC(=O)[C@H](C(C)C)NC(=O)[C@H](Cc2cccc(Cl)c2)N(C)C(=O)[C@H](C(C)C)NC(=O)[C@H](C)NC(=O)CSC[C@@H](C(=O)NCCOCCOCCOCCOCCC(N)=O)NC(=O)[C@H](Cc2ccc(O)cc2)N(C)C(=O)[C@H](Cc2ccccc2)NC(=O)[C@H](CCCNC(=N)N)NC(=O)[C@H](CCC(=O)NCCOCCOCCOCCOCCOCCOCCOCCOC)NC(=O)[C@H]([C@@H](C)CC)NC1=O [compound 101]
1 to 100 nM	CC[C@H](C)[C@@H]1NC(=O)[C@H](Cc2ccc(OCC(=O)O)cc2)NC(=O)[C@H](Cc2ccc(O)cc2)NC(=O)[C@H](CC(N)=O)NC(=O)[C@H](Cc2cn(CC(=O)O)c3ccccc23)NC(=O)[C@H](C(C)C)NC(=O)[C@H](Cc2cccc(Cl)c2)N(C)C(=O)[C@H](C(C)C)NC(=O)[C@H](C)NC(=O)CSC[C@@H](C(=O)NCCOCCOCCOCCOCCC(N)=O)NC(=O)[C@H](Cc2ccc(O)cc2)N(C)C(=O)[C@H](Cc2ccccc2)NC(=O)[C@H](CCC(=O)NCCOCCOCCOCCOCCOCCOCCOCCOC)NC(=O)[C@H](CCCNC(=N)N)NC(=O)[C@H]([C@@H](C)CC)NC1=O [compound 102]
1 to 100 nM	CC[C@H](C)[C@@H]1NC(=O)[C@H](Cc2ccc(OCC(=O)O)cc2)NC(=O)[C@H](Cc2ccc(O)cc2)NC(=O)[C@H](CC(N)=O)NC(=O)[C@H](Cc2cn(CC(=O)O)c3ccccc23)NC(=O)[C@H](C(C)C)NC(=O)[C@H](Cc2cccc(Cl)c2)N(C)C(=O)[C@H](C(C)C)NC(=O)[C@H](C)NC(=O)CSC[C@@H](C(=O)NCCOCCOCCOCCOCCC(N)=O)NC(=O)[C@H](Cc2ccc(O)cc2)N(C)C(=O)[C@H](Cc2cccc(C(=O)O)c2)NC(=O)[C@H](CCCNC(=N)N)NC(=O)[C@H](CCC(=O)NCCOCCOCCOCCOCCOCCOCCOCCOC)NC(=O)[C@H]([C@@H](C)CC)NC1=O [compound 103]
